Patent US20260069599A1, “INHIBITORS OF BROMODOMAIN-CONTAINING PROTEIN 4 AND PHOSPHOINOSITIDE 3-KINASE” (Board of Regents of the University of Nebraska, priority 2022, published 2026)
Read-outs that look alike come from different tables or passages of the source.

How the values were obtained:
Type in all cases: cell-based, human
[1] = tested on: DAOY cells; test: Cell viability MTT assay in DAOY cells; conditions: 48-72 hours
Experimental: (§1) For cell viability assay, DAOY cells from SHH-MB group and HD-MB03 from Group 3 MB were exposed to new analogs in a range of concentrations. In brief, cells were seeded in 96-well plate with a density of 3×10^3 cells/well density for 16 hours. Cells were then treated with different drug concentrations for 48-72 hours. MTT assay reagent was added to the cells and after incubation for 4 hours, formazan crystals were dissolved in 200 μL DMSO, and the absorbance was determined using a microplate reader (Molecular Devices Me5). The IC50 was determined by nonlinear least square regression by performing each experiment in triplicate.

[2] = tested on: HD-MB03 cells; test: Cell viability MTT assay in HD-MB03 cells
Experimental: as §1

[3] = tested on: MB cells; test: Scratch (wound) cell migration assay; conditions: 0 to 24 hours, vs untreated MB cells
Experimental: Regarding the cell migration, scratch distances and width closure were measured between images from time 0 to 24 hours. After 24 hours, the untreated MB cells migrated and covered approximately 50% to 60% of the wound area quantified at time zero. […] Initial wound edges marked initial cell migration and were used to identify the decrease in wound width throughout the experiment. Migration distances were shown separately during the period of 0-24 hours. A significant difference in migration distance was found for the treated group compared to the control, while no difference in motility was found within the treated groups.

[4] = tested on: DAOY and HDMB-03 cells; test: Transwell migration assay; conditions: vs control
Experimental: FIGS. 2A-2D show the effect of MDP5 treatment on cell viability and migration potential in MB cells. FIGS. 2A and 2B provide graphs of cell viability assays with DAOY cells (FIG. 2A) and HD-MB03 cells (FIG. 2B) with the indicated compounds. FIG. 2C provides images of the Transwell® migration assay and FIG. 2D provides quantitation of the Transwell® migration assay (top: DAOY cells; bottom: HD-MB03 cells). Cells were fixed in formalin and stained with 0.5% crystal violet for 30 minutes. Images were taken using a microscope at 20× objective. Stained cells were then dissolved in acetic acid solution and optical density (OD) was measured at 590 nm. Scale bar: 100 μm. **P<0.01 and ***P<0.001 vs Control.
Further, the effect of MDPS on cell migration was investigated.

[5] = tested on: DAOY cells; test: Cell cycle analysis in DAOY cells; conditions: 5 μM, 48 hours; control 52.8%
Excerpt: FIGS. 3A-3F show the effect of MDP5 treatment on cell cycle analysis, induction of apoptosis, and colony formation assay in MB cells. […] Histograms show the quantitative analysis of cell cycle assay for DAOY (FIG. 3A) and HD-MB03 (FIG. 3B) cells (n=5; mean±S.D., p<0.05). […] FIG. 3C provides images of cells treated with the indicated compounds. […] FIGS. 3D and 3E provide graphs of the apoptotic assay showing higher numbers of apoptotic cells in MDP5 treated groups (n=5; mean±S.D.; p<0.05). FIG. 3F provides a graph of the relative expression of BCL2 and MYCN target genes after treatment, as determined by RT-PCR.
Cell cycle distribution was determined in proliferating MB cells. […] Cells were harvested with 0.25% EDTA-free trypsin (Gibco) and washed twice in ice-cold PBS. Control and treated cells (0.1×10^6) were stained with FxCycle™ PI/RNase Staining Solution (ThermoFisher Scientific) and analyzed for DNA content via flow cytometry.

[6] = tested on: DAOY cells; test: Annexin V/PI apoptosis assay in DAOY cells; conditions: 48 hours of treatment; untreated 25.61%
Experimental: For apoptosis assay, the cells were collected as above and stained with 500 μL 1× binding buffer containing 5 μL annexin V-FITC and 10 μL propidium iodide (PI) in the dark for 5 minutes. Flow cytometry (FACSCalibur™ cytometer, BD Biosciences) was performed to quantify and calculate the cell apoptosis rate. AV-FITC values were set horizontally, and PI values were set as vertical axes. All experiments were performed in triplicate.

[7] = tested on: HD-MB03 and DAOY cells; test: Western blot of target proteins; conditions: for GLI1 and GLI2 protein expression: HD-MB03 and DAOY cells
Experimental: FIGS. 4A and 4B provide images of western blot analyses of target proteins after HDMB03 and DAOY cells were incubated with 5.0 μM of the indicated compounds for 48 hours. FIG. 4C (HD-MB03) and 4D (DAOY) provide western blot images which show the effects of MDP5 treatment on target proteins including GLI1 and GLI2. FIG. 4E provides representative confocal images of DAOY and HD-MB03 spheroids after treatment with 5.0 μM MDP5. […] Spheroids were stained for live (calcein AM) and dead (ethidium homodimer-1) cells after 7 days of treatment. Scale bars=200 μm. […] Next, cells were incubated with APC-CD15 for 30 minutes on ice in the dark. Before FACS analysis, samples were washed thrice with a staining buffer. FIG. 4G provides a graph showing the quantitation of CD15+ cells (n=3; p<0.05, control vs. treatment groups).
The whole protein from each treated group was extracted using RIPA buffer containing a cocktail of protease inhibitors (Sigma-Aldrich) for protein level determination. Protein concentration was determined using a BCA assay (Peirce). Next, 40 μg protein was subject to SDS-PAGE in a 10% gel. Following the transfer of targeted proteins onto polyvinylidene difluoride sheets, the membranes were washed with Tris-buffered saline plus Tween® 20 (TTBS; cat. no. WLA025; Wanleibio Co., Ltd.) for 5 minutes and then blocked with skimmed milk powder solution for 1 hour. Primary antibodies against Gli1 (1:1000), Gli2 (1:1000), MYCN (1:1,000), p-MYCN (1:1,000), Bcl-2 (1:1000), Bax (1:1000), p-PI3K (1:500), PI3K (1:1000), p-Akt (1:500), Akt (1:1000), Cyclin D1 (1:1000), and β-actin (1:1,000) were added and the membranes were incubated at 4° C. overnight. After an additional four washes with TBST, secondary IgG antibodies conjugated to horseradish peroxidase (1:5,000) were incubated with the membranes for 45 minutes at 37° C. Following a further six washes with TBST, the blots were developed using ECL start Western blotting detection kit (GE Healthcare) and the results were recorded in the iBright™ FL100 (Invitrogen). The relative expression levels of these proteins in different groups were calculated with the iBright™ software.

Row | Structure (SMILES) | IC50 ([1]; Homo sapiens, Daoy) [µM] | IC50 ([2]; Homo sapiens, HD-MB03, 48-72 hours, read-out: IC50 in HD-MB03 cells) [µM] | cell migration into wound area [3] | cells migrated in Transwell migration assay [4] | cells in the G1 phase, DAOY [5] [%] | percentage of apoptotic cells, DAOY [6] [%] | GLI1 and GLI2 protein expression [7] | IC50 [1] [µM] | IC50 ([2]; Homo sapiens, HD-MB03, 48-72 hours, read-out: IC50 in HDMB-03 cells (unit printed M)) [µM] | Cyclin D1, p-AKT (Ser473) and p-PI3K protein levels ([7]; 5.0 μM, 48 hours) | p-MYCN (Ser54) level ([7]; 5.0 μM, 48 hours) | GLI1 protein expression in HD-MB03 cells ([7]; among treated HD-MB03 cells) | IC50 ([2]; 48-72 hours, read-out: IC50 in HD-MB03 cells) [µM] | GLI2 protein accumulation ([7]; compared with other treatments)
1 | O=C(/C=C/N1CCOCC1)c1cccc(-c2cc3c(cc2Br)OCCO3)c1O [MDP1, (E)-1-(3-(7-bromo-2,3-dihydrobenzo [b][1,4]dioxin-6-yl)-2-hydroxyphenyl)-3-morpholinoprop-2-en-1-one] | 5.51 | 5.56 | lesser migration | decreased the amount of DAOY and HDMB-03 cells migrated | 40.1 | 61.31 | decrease in levels of both proteins | – | – | – | – | – | – | –
2 | O=c1cc(N2CCOCC2)oc2c(-c3ccc4c(c3)OCCO4)cccc12 [MDP5, 8-(2,3-dihydrobenzo [b][1,4]dioxin-6-yl)-2-morpholino-4H-chromen-4-one] | 5.57 | – | lesser migration | decrease migration significantly | 73.2 | 70.35 | decrease in levels of both proteins | 5.5 | 5.14 | reduced | explicitly induced | largest reduction in GLI1 protein expression | – | –
3 | O=c1cc(N2CCOCC2)oc2c(-c3ccc4c(c3)OCCO4)csc12 [SF2523, reference compound] | – | – | lesser migration | decreased the amount of DAOY and HDMB-03 cells migrated | 73.1 | 56.50 | – | 12.6 | – | – | – | – | 5.14 | exceeded all other treatment options in terms of lowering GLI2 protein accumulation
